This passage reports Kd and IC50 results from US20240025906A1 (NEURON23, INC., priority 2022, published 2024).

One assay concerns the target T1, TYK2 JH2 (Homo sapiens, UniProt P29597).
T1 construct: purchased DiscoverX (KINOMEscan KdELECT service); host or cells: E. coli BL21-derived (T7 phage display) or HEK-293
Kind of assay: TYK2 JH2 binding assay (KINOMEscan KdELECT competitive binding). The note with it: TYK2 JH2 domain, DiscoverX KINOMEscan KdELECT (Assay A); read-out: Biochemical TYK2_DiscoverX_JH2_BND_Kd. The method in brief:
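JH2-domain fragment, expressed as T7 phage tag in BL21-derived E. coli or DNA-tagged from HEK-293, competed with test compound against bead-immobilized biotinylated ligand in binding buffer (0.9% DMSO). 1 h shaking at room temperature; bound kinase eluted with 0.5 μM free ligand and quantified by qPCR. Kd from 11-point 3-fold dilutions.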

The subject of assay [1] is JAK1/TYK2 pSTAT5 (Tyr694/699) in THP-1 cell line. Kind of assay: IFNa-stimulated JAK1/TYK2 pSTAT5 (Tyr694/699) inhibition cellular assay, AlphaLISA. The class given is cell-based. As to conditions: Homo sapiens; THP-1 cells, IFNa-stimulated, AlphaLISA (Assay B); read-out: Cellular_THP1_IFNa-pSTATS_TYK2. The method in brief:
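pSTAT5 (Tyr694/699) in lysates quantified by AlphaLISA (615 nm) after 30 min IFNa stimulation (100 ng/mL stock) of THP-1 cells. The cells, 2e4 per well in HBSS, had first been exposed 1 h at 37° C. to eight 6-fold compound dilutions, 10000 down to 0.04 nM final. IC50 fitted by 4PL regression, bottom 0, Hill slope −1.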
On the technique in general: Alpha assays give light when donor and acceptor beads are brought close together.

T1 sequence (P29597 589-875 limits assumed): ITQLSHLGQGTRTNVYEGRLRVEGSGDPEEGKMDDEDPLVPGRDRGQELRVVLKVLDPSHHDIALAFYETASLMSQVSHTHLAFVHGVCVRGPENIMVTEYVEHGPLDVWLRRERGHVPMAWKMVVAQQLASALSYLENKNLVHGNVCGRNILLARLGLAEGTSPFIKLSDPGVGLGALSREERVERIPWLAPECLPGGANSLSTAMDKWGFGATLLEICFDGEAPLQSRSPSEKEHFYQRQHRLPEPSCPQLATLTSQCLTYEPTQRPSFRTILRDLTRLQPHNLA

On to `CNc1ncc(-c2nc3cc(Br)ccc3o2)c2cc(NC(=O)C3CC3)ncc12` [Example 209, N-(5-(5-bromobenzo[d]oxazol-2-yl)-8-(methylamino)-2,7-naphthyridin-3-yl)cyclopropanecarboxamide], for which, at TYK2 JH2, the Kd is not above 100 nM. The IC50 in assay [1] is not above 500 nM.
For the compound `CNc1ncc(-c2nc3cc(C#N)ccc3o2)c2cc(NC(=O)C3CC3)ncc12` [Example 210, N-(5-(5-cyanobenzo[d]oxazol-2-yl)-8-(methylamino)-2,7-naphthyridin-3-yl)cyclopropanecarboxamide], the Kd on TYK2 JH2 was not above 100 nM. For the same compound, the IC50 in assay [1] was not above 500 nM.
For the compound `CNc1ncc(-c2nc3cccc(Cl)c3o2)c2cc(NC(=O)C3CC3)ncc12` [Example 211, N-(5-(7-chlorobenzo[d]oxazol-2-yl)-8-(methylamino)-2,7-naphthyridin-3-yl)cyclopropanecarboxamide], the Kd at TYK2 JH2 was not above 100 nM. In assay [1], the IC50 was not above 500 nM.
As to `CNc1ncc(-c2nc3cc(Cl)ccc3o2)c2cc(NC(=O)C3CC3)ncc12` [Example 212, N-(5-(5-chlorobenzo[d]oxazol-2-yl)-8-(methylamino)-2,7-naphthyridin-3-yl)cyclopropanecarboxamide], the Kd at TYK2 JH2 was not above 100 nM. In addition, the IC50 in assay [1] is not above 500 nM.
With `CNc1ncc(-c2nc3ccc(C#N)cc3o2)c2cc(NC(=O)C3CC3)ncc12` [Example 213, N-(5-(6-cyanobenzo[d]oxazol-2-yl)-8-(methylamino)-2,7-naphthyridin-3-yl)cyclopropanecarboxamide], the Kd on TYK2 JH2 was not above 100 nM. Moreover, in assay [1], the IC50 was not above 500 nM.
The corresponding values for `CNc1ncc(-c2nc3cc(C(=O)O)ccc3o2)c2cc(NC(=O)C3CC3)ncc12` [Example 214, 2-(6-(cyclopropanecarboxamido)-1-(methylamino)-2,7-naphthyridin-4-yl)benzo[d]oxazole-5-carboxylic acid] are not above 100 nM and more than 500 nM.
On the same counts, the results for `CNc1ncc(-c2nc3c(O)cccc3o2)c2cc(NC(=O)C3CC3)ncc12` [Example 215, N-(5-(4-hydroxybenzo[d]oxazol-2-yl)-8-(methylamino)-2,7-naphthyridin-3-yl)cyclopropanecarboxamide] are not above 100 nM and not above 500 nM.
`CNc1ncc(-c2nc3cc(C(C)=O)ccc3o2)c2cc(NC(=O)C3CC3)ncc12` [Example 216, N-(5-(5-acetylbenzo[d]oxazol-2-yl)-8-(methylamino)-2,7-naphthyridin-3-yl)cyclopropanecarboxamide]: the Kd at TYK2 JH2 was not above 100 nM. Further, in assay [1], the IC50 is not above 500 nM.
The corresponding values for `CNc1ncc(-c2nc3cc(C(F)(F)F)ccc3o2)c2cc(NC(=O)C3CC3)ncc12` [Example 217, N-(8-(methylamino)-5-(5-(trifluoromethyl)benzo[d]oxazol-2-yl)-2,7-naphthyridin-3-yl)cyclopropanecarboxamide] are not above 100 nM and not above 500 nM.
The corresponding values for `CNc1ncc(-c2nc3cc(OC(F)(F)F)ccc3o2)c2cc(NC(=O)C3CC3)ncc12` [Example 218, N-(8-(methylamino)-5-(5-(trifluoromethoxy)benzo[d]oxazol-2-yl)-2,7-naphthyridin-3-yl)cyclopropanecarboxamide] are not above 100 nM and not above 500 nM.
In the case of `CNc1ncc(-c2nc3ccc(Cl)cc3o2)c2cc(NC(=O)C3CC3)ncc12` [Example 219, N-(5-(6-chlorobenzo[d]oxazol-2-yl)-8-(methylamino)-2,7-naphthyridin-3-yl)cyclopropanecarboxamide], the Kd at TYK2 JH2 was not above 100 nM. Also, the IC50 in assay [1] is not above 500 nM.
Turning to `CNc1ncc(-c2nc3c(N4CCC4COC)cccc3o2)c2cc(NC(=O)C3CC3)ncc12` (stereo not drawn) [Example 220, N-(5-(4-(2-(methoxymethyl)azetidin-1-yl)benzo[d]oxazol-2-yl)-8-(methylamino)-2,7-naphthyridin-3-yl)cyclopropanecarboxamide], the Kd on TYK2 JH2 was not above 100 nM. Moreover, the IC50 in assay [1] was more than 500 nM.
The corresponding values for `CNc1ncc(-c2nc3c(N4CC(OC)C4)cccc3o2)c2cc(NC(=O)C3CC3)ncc12` [Example 221, N-(5-(4-(3-methoxyazetidin-1-yl)benzo[d]oxazol-2-yl)-8-(methylamino)-2,7-naphthyridin-3-yl)cyclopropanecarboxamide] are not above 100 nM and not above 500 nM.
On the same counts, the results for `CNc1ncc(-c2nc3c(OC4CC4)cccc3o2)c2cc(NC(=O)C3CC3)ncc12` [Example 222, N-(5-(4-cyclopropoxybenzo[d]oxazol-2-yl)-8-(methylamino)-2,7-naphthyridin-3-yl)cyclopropanecarboxamide] are not above 100 nM and not above 500 nM.
On the same counts, the results for `CNc1ncc(-c2nc3cc(OC4CC4)ccc3o2)c2cc(NC(=O)C3CC3)ncc12` [Example 223, N-(5-(5-cyclopropoxybenzo[d]oxazol-2-yl)-8-(methylamino)-2,7-naphthyridin-3-yl)cyclopropanecarboxamide] are not above 100 nM and not above 500 nM.
Turning to `CNc1ncc(-c2nc3c(OC)c(OC)ccc3o2)c2cc(NC(=O)C3CC3)ncc12` [Example 224, N-(5-(4,5-dimethoxybenzo[d]oxazol-2-yl)-8-(methylamino)-2,7-naphthyridin-3-yl)cyclopropanecarboxamide], the Kd on TYK2 JH2 is not above 100 nM. In addition, the IC50 in assay [1] was not above 500 nM.
`CNc1ncc(-c2nc3cc(OC(F)F)ccc3o2)c2cc(NC(=O)C3CC3)ncc12` [Example 225, N-(5-(5-(difluoromethoxy)benzo[d]oxazol-2-yl)-8-(methylamino)-2,7-naphthyridin-3-yl)cyclopropanecarboxamide]: the Kd at TYK2 JH2 is not above 100 nM. In addition, the IC50 in assay [1] is not above 500 nM.
The corresponding values for `CNc1ncc(-c2nc3cc(OCC4CC4)ccc3o2)c2cc(NC(=O)C3CC3)ncc12` [Example 226, N-(5-(5-(cyclopropylmethoxy)benzo[d]oxazol-2-yl)-8-(methylamino)-2,7-naphthyridin-3-yl)cyclopropanecarboxamide] are not above 100 nM and not above 500 nM.
Turning to `CNc1ncc(-c2nc3cc(OCCC#N)ccc3o2)c2cc(NC(=O)C3CC3)ncc12` [Example 227, N-(5-(5-(2-cyanoethoxy)benzo[d]oxazol-2-yl)-8-(methylamino)-2,7-naphthyridin-3-yl)cyclopropanecarboxamide], the Kd at TYK2 JH2 was not above 100 nM. In assay [1], the IC50 is not above 500 nM.
The corresponding values for `CNc1ncc(-c2nc3cc(OC4COC4)ccc3o2)c2cc(NC(=O)C3CC3)ncc12` [Example 228, N-(8-(methylamino)-5-(5-(oxetan-3-yloxy)benzo[d]oxazol-2-yl)-2,7-naphthyridin-3-yl)cyclopropanecarboxamide] are not above 100 nM and not above 500 nM.
Consider `CNc1ncc(-c2nc3cc(OC4CCOC4)ccc3o2)c2cc(NC(=O)C3CC3)ncc12` (stereo not drawn) [Example 229, N-(8-(methylamino)-5-(5-((tetrahydrofuran-3-yl)oxy)benzo[d]oxazol-2-yl)-2,7-naphthyridin-3-yl)cyclopropanecarboxamide], for which, at TYK2 JH2, the Kd was not above 100 nM. The IC50 in assay [1] is not above 500 nM.
On the same counts, the results for `CNc1ncc(-c2nc3cc(OC4CN(C(C)=O)C4)ccc3o2)c2cc(NC(=O)C3CC3)ncc12` [Example 230, N-(5-(5-((1-acetylazetidin-3-yl)oxy)benzo[d]oxazol-2-yl)-8-(methylamino)-2,7-naphthyridin-3-yl)cyclopropanecarboxamide] are not above 100 nM and not above 500 nM.
`CNc1ncc(-c2nc3cc(OCCOC)ccc3o2)c2cc(NC(=O)C3CC3)ncc12` [Example 231, N-(5-(5-(2-methoxyethoxy)benzo[d]oxazol-2-yl)-8-(methylamino)-2,7-naphthyridin-3-yl)cyclopropanecarboxamide]: the Kd on TYK2 JH2 is not above 100 nM. Moreover, the IC50 in assay [1] was not above 500 nM.
Regarding `CNc1ncc(-c2nc3cc(O[C@H]4C[C@@H](C#N)C4)ccc3o2)c2cc(NC(=O)C3CC3)ncc12` [Example 232, N-(5-(5-((1s,3s)-3-cyanocyclobutoxy)benzo[d]oxazol-2-yl)-8-(methylamino)-2,7-naphthyridin-3-yl)cyclopropanecarboxamide], on TYK2 JH2, the Kd was not above 100 nM. Further, the IC50 in assay [1] is not above 500 nM.
As for `CNc1ncc(-c2nc3cc(O[C@H]4C[C@H](C#N)C4)ccc3o2)c2cc(NC(=O)C3CC3)ncc12` [Example 233, N-(5-(5-((1r,3r)-3-cyanocyclobutoxy)benzo[d]oxazol-2-yl)-8-(methylamino)-2,7-naphthyridin-3-yl)cyclopropanecarboxamide], the Kd on TYK2 JH2 was not above 100 nM. Moreover, the IC50 in assay [1] was not above 500 nM.
`CNc1ncc(-c2nc3cc(OCc4ccccc4)ccc3o2)c2cc(NC(=O)C3CC3)ncc12` [Example 234, N-(5-(5-(benzyloxy)benzo[d]oxazol-2-yl)-8-(methylamino)-2,7-naphthyridin-3-yl)cyclopropanecarboxamide]: the Kd on TYK2 JH2 is not above 100 nM. Further, in assay [1], the IC50 is not above 500 nM.
On the same counts, the results for `CNc1ncc(-c2nc3cc(OCCN4CCOCC4)ccc3o2)c2cc(NC(=O)C3CC3)ncc12` [Example 235, N-(8-(methylamino)-5-(5-(2-morpholinoethoxy)benzo[d]oxazol-2-yl)-2,7-naphthyridin-3-yl)cyclopropanecarboxamide] are not above 100 nM and not above 500 nM.
